From patent publication US20260297164A1, “ANTI-FIBROTIC PEPTIDES AND USES THEREOF” (Deackt, Inc., priority 2021, published 2026)

Tested on: autophagy in lung fibroblasts
Experiment: TGF-β1 effect on autophagy (LC3, p62) in lung fibroblasts
Assay type: cell-based, mouse
Conditions: TGF-β1 10 ng/ml, 24 h
Protocol: FIG. 3. CD148 deficiency enhances PI3K/Akt/mTOR signaling which results in low autophagy, high p62 expression in lung fibroblasts. (A) Mouse lung fibroblasts were isolated from Ptprj^fl/fl Col1a2^Cre-ER(T)+/0 mice (Ptprj−/−) and Col1a2^Cre-ER(T)+/0 mice (WT) and then treated with 4-OHT (1 μM) for 24 h. After 4-OHT treatment, cells were exposed to TGF-β1 (10 ng/ml) for 24 h. After stimulation, cells were harvested, and the expression of p-p85 (Tyr458), p-Akt (Ser473), pmTOR (Ser2448), p-p70 S6 kinase (Thr389), p-S6 ribosomal protein (Ser235/236) and CD148 (n=4 for each condition) in lysates was determined by Western immunoblotting and corresponding densitometry (ImageJ software). Data were normalized to corresponding dephospho-forms or GAPDH. (B) WT and Ptprj−/− cells were stimulated with TGF-β1 (10 ng/ml) for 24 h. Then cells were lysed and LC3-I and -II and p62 were measured by western blot (n=4). […] Then, autophagy flux was measured by LC3-II accumulation in the absence or presence of lysosomal acidification inhibitor chloroquine (25 μM) at 2, 4 and 6 h (n=4). […] LC3 puncta positive cells were quantified using ImageJ (D). […]
Polyacrylamide gel electrophoresis and immunoblotting were performed according to standard methods. […] The signals were detected by ECL (Thermo Fisher Scientific, Waltham, MA). […]

TGF-β1 was tested, and the “autophagy (LC3-II relative to LC3-I)” value was “downregulated autophagy” and the p62 expression was “increased p62 expression”.
